Results taken from patent US11352350B2, “IRAK degraders and uses thereof” (Kymera Therapeutics, Inc., priority 2018, dated 2022).
Where two headings read alike, the source gives them in different places.

Key:
[1] = biological target: IRAK4 (Homo sapiens (Human), UniProt Q9NWZ3); experiment: IRAK4 MSD degradation in OCI-LY10; type: cell-based
Procedure, shortened: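 OCI-LY10 cells treated with 8-point 1:3 dilutions (top 1 to 10 μM final) for 4 to 24 h at 37° C. Lysate IRAK4 measured by MSD sandwich immunoassay (2H9 capture, Y279 detection, SULFO-TAG anti-rabbit). DC50 from three-parameter logistic fit.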

[2] = test system: OCI-LY10; experiment: CTG Cell Viability Assay - OCI-LY10; type: cell-based, human; conditions: Homo sapiens, OCI-Ly10, 96 h, OCI-LY10, 4 days; read-out: CTG Cell Viability Assay - OCI-LY10: Average external-IC50
Procedure, shortened: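 OCI-LY10 cells exposed to 9-dose, 1:3 dilutions from 10 μM top (0.2% DMSO) for 4 days at 37° C, 5% CO2. Viability by CellTiter-Glo luminescence; IC50 from three-parameter logistic fit.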

[3] = OCI-LY10, 4 hrs, MSD, read-out: IRAK4 MSD degradation in OCI-LY10 at 4 hrs: Average external-Abs DC50
[4] = OCI-LY10, 24 hrs, MSD, read-out: IRAK4 MSD degradation in OCI-LY10 at 24 hrs: Average external-Abs DC50
[5] = OCI-LY10, 4 hrs, read-out: IRAK4 MSD degradation in OCI-LY10 at 4 hrs: DC50
[6] = OCI-LY10, 24 hrs, read-out: IRAK4 MSD degradation in OCI-LY10 at 24 hrs: DC50

Sequence of IRAK4 (Q9NWZ3 whole entry): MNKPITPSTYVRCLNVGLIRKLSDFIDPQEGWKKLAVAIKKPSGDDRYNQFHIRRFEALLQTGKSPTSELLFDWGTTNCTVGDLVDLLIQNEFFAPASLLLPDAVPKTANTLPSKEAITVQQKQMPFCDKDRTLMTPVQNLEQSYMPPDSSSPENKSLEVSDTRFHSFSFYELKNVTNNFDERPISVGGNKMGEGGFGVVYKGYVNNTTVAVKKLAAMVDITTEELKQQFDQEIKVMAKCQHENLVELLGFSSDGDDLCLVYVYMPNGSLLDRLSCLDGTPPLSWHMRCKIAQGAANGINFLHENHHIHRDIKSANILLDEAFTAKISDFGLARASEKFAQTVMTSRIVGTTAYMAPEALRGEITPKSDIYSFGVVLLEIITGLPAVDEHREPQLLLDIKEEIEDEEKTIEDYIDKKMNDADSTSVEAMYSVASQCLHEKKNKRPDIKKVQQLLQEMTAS

O=C1CCC(N2C(=O)c3ccnc(NCCCOC4CCN(Cc5ccc(-n6cc(NC(=O)c7cnn8ccc(N9CCOCC9)nc78)c(C(F)F)n6)cc5)CC4)c3C2=O)C(=O)N1 (centres unmarked) [I-441]
DC50 [1, 3]: 10 to 100 nM
DC50 [1, 4]: 10 to 100 nM
IC50 [2]: > 1000 nM

CC[C@@H]1[C@H](F)C(=O)N[C@@H]1COc1ncc(C#C[C@H]2CC[C@@H](CN(C)CCCOCCCc3ccc4c(c3)n(C)c(=O)n4C3CCC(=O)NC3=O)CC2)c2cc(C(N)=O)c(OC)cc12 (some centres unmarked) [I-230]
DC50 [1, 3]: 100 to 1000 nM
DC50 [1, 4]: 100 to 1000 nM
IC50 [2]: > 1000 nM

CN(Cc1ccc(-n2cc(NC(=O)c3cnn4ccc(N5CCOCC5)nc34)c(C(F)F)n2)cc1)[C@H]1CC[C@H](Nc2cccc3c2C(=O)N(C2CCC(=O)NC2=O)C3=O)CC1 (some centres unmarked) [I-476]
DC50 [1, 5]: 10 to 100 nM
DC50 [1, 6]: 10 to 100 nM
IC50 [2]: > 1000 nM

CN1C(=O)C(C2CCC(=O)NC2=O)c2cccc(CCCOC3CCN(C[C@H]4CC[C@H](n5cc(NC(=O)c6cnn7ccc(N8CC(O)C8)nc67)c(C(F)F)n5)CC4)CC3)c21 (some centres unmarked) [I-284]
DC50 [1, 3]: < 10 nM
IC50 [2]: > 1000 nM

O=C1CCC(N2C[C@@H](c3ccc(C#CCCOC4CCN(C[C@H]5CC[C@H](n6cc(NC(=O)C7CNN8C=CC(N9CCOCC9)=NC78)c(C(F)F)n6)CC5)CC4)cc3)OC2=O)C(=O)N1 (some centres unmarked) [I-197]
DC50 [1, 3]: 10 to 100 nM
IC50 [2]: > 1000 nM

Cn1c(=O)n(C2CCC(=O)NC2=O)c2cccc(CN3CC4(CCN(C[C@H]5CC[C@H](n6cc(NC(=O)c7cnn8ccc(N9CCOCC9)nc78)c(C(F)F)n6)CC5)CC4)C3)c21 (some centres unmarked) [I-233]
DC50 [1, 3]: < 10 nM
IC50 [2]: 100 to 500 nM

CC[C@@H]1[C@H](F)C(=O)N[C@@H]1COc1ccc(-c2ncn(CN(C)CCCOCCCc3cccc4c3n(C)c(=O)n4C3CCC(=O)NC3=O)n2)c2cc(C(N)=O)c(OC)cc12 (some centres unmarked) [I-188]
DC50 [1, 3]: 100 to 1000 nM
DC50 [1, 4]: 100 to 1000 nM
IC50 [2]: > 1000 nM

O=C1CCC(N2C(=O)c3cccc(CCCOC4CCN(C[C@H]5CC[C@H](n6cc(NC(=O)c7cnn8ccc(N9CCOCC9)nc78)c(C(F)F)n6)CC5)CC4)c3C2=O)C(=O)N1 (some centres unmarked) [I-207]
DC50 [1, 3]: 10 to 100 nM
IC50 [2]: > 1000 nM

CN(Cc1ccc(CCNc2cccc3c2C(=O)N(C2CCC(=O)NC2=O)C3=O)cc1)C[C@H]1CC[C@H](n2cc(NC(=O)c3cnn4ccc(N5C[C@H]6C[C@@H]5CO6)nc34)c(C(F)F)n2)CC1 (stereo partly drawn) [I-341, N-[3-(difluoromethyl)-1-[4-[[[4-[2-[[2-(2,6-dioxo-3-piperidyl)-1,3-dioxo-isoindolin-4-yl]amino]ethyl]phenyl]methyl-methyl-amino]methyl]cyclohexyl]pyrazol-4-yl]-5-[(1R,4R)-2-oxa-5-azabicyclo [2.2.1]heptan-5-yl] pyrazolo [1,5-a] pyrimidine-3-carboxamide]
DC50 [1, 3]: 100 to 1000 nM
DC50 [1, 4]: 10 to 100 nM
IC50 [2]: > 1000 nM

CN1C(=O)CCC(N2C(=O)c3cccc(NCCCOC4CCN(C[C@H]5CC[C@H](n6cc(NC(=O)c7cnn8ccc(N9CCOCC9)nc78)c(C(F)F)n6)CC5)CC4)c3C2=O)C1=O (some centres unmarked) [I-368]
DC50 [1, 3]: > 1000 nM
IC50 [2]: > 1000 nM

Cn1c(=O)n(C2CCC(=O)NC2=O)c2cccc(CCCOC3CCN(C(=O)[C@H]4CC[C@H](n5cc(NC(=O)c6cnn7ccc(N8CCNCC8)nc67)c(C(F)F)n5)CC4)CC3)c21 (some centres unmarked) [I-136]
DC50 [1, 3]: < 10 nM
IC50 [2]: > 1000 nM

C=C(C)c1nn([C@H]2CC[C@H](CN(C)C3CCN(Cc4cccc5c4n(C)c(=O)n5C4CCC(=O)NC4=O)CC3)CC2)cc1NC(=O)c1cnn2ccc(NCC3CC3)nc12 (some centres unmarked) [I-173]
DC50 [1, 3]: 100 to 1000 nM
IC50 [2]: > 1000 nM

CC[C@@H]1CC(=O)N[C@@H]1COc1ncc(C#C[C@H]2CC[C@H](CN(C)CCCOCCCc3cccc4c3n(C)c(=O)n4C3CCC(=O)NC3=O)CC2)c2cc(C(N)=O)c(OC)cc12 (some centres unmarked) [I-219]
DC50 [1, 3]: 10 to 100 nM
DC50 [1, 4]: 10 to 100 nM
IC50 [2]: > 1000 nM

CC[C@H]1C(COc2ncc(C#C[C@H]3CC[C@H](CN4CCC(OCCCc5cccc6c5c5cccnc5n6C5CCC(=O)NC5=O)CC4)CC3)c3cc(C(N)=O)c(OC)cc23)NC(=O)[C@H]1F (some centres unmarked) [I-205]
DC50 [1, 3]: 100 to 1000 nM
DC50 [1, 4]: 10 to 100 nM
IC50 [2]: > 1000 nM

CN(CCCOCCCN(C)C(=O)c1ccc(CNCc2ccc(-c3ccc4c(cnn4CC4CC4)c3)cc2)cc1)C[C@H]1CC[C@H](n2cc(NC(=O)c3coc(-c4ccnc(NCC5CC5)c4)n3)c(C(F)F)n2)CC1 [I-133]
DC50 [1, 3]: > 1000 nM
DC50 [1, 4]: > 1000 nM
IC50 [2]: > 1000 nM

CC[C@@H]1CC(=O)N[C@@H]1COc1ncc(C#CC2CCN(CCCOCCCc3cccc4c3n(C)c(=O)n4C3CCC(=O)NC3=O)CC2)c2cc(C(N)=O)c(OC)cc12 (some centres unmarked) [I-203]
DC50 [1, 3]: > 1000 nM
DC50 [1, 4]: 100 to 1000 nM
IC50 [2]: > 1000 nM

O=C1CCC(N2C(=O)c3cccc(NCCCOC4CCN(C[C@H]5OC[C@H](n6cc(NC(=O)c7cnn8ccc(N9CCOCC9)nc78)c(C(F)F)n6)CO5)CC4)c3C2=O)C(=O)N1 (some centres unmarked) [I-451, N-[3-(difluoromethyl)-1-[2-[[4-[3-[[2-(2,6-dioxo-3-piperidyl)-1,3-dioxo-isoindolin-4-yl]amino]propoxy]-1-piperidyl]methyl]-1,3-dioxan-5-yl]pyrazol-4-yl]-5-morpholino-pyrazolo [1,5-a] pyrimidine-3-carboxamide]
DC50 [1, 5]: 10 to 100 nM
DC50 [1, 6]: 10 to 100 nM
IC50 [2]: 100 to 500 nM
